Results on 33 compounds are retold here after patent publication US20250282799A1, “SUBSTITUTED PYRIDO[4,3-d]PYRIMIDINES AS KRAS MODULATORS” (Alterome Therapeutics, Inc., priority 2023, published 2025).

Each structure is given as a SMILES string. pIC50: −log10 of the molar value.

This test concerns KRAS G12V dependent lung adenocarcinoma cell line, NCI-H441. The test can be described thus: Cellular pERK (Thr202/Tyr204) FRET/HTRF assay. The following applies: Homo sapiens, NCI-H441, cellular pERK (Thr202/Tyr204) HTRF, NCI-H441 cells. The class given is cell-based. In short, it runs like this: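 NCI-H441 cells (KRAS G12V) plated overnight at 37 °C, then exposed to compounds for 1 hr at 37 °C, 5% CO2; DMSO as negative control. Lysates read by Eu-cryptate/d2 sandwich FRET (665 nm) for ERK1/2 phosphorylated at Thr202/Tyr204; IC50 from curve fit.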
Compound `C#Cc1c(F)ccc2cc(N)cc(-c3ncc4c(N5CCOC[C@H]6[C@H](F)[C@H]65)nc(OC[C@@]56CCCN5C[C@H](C)C6)nc4c3F)c12` (single isomer, unassigned) [Example 208] showed a pIC50 of more than 7.30.
The compound `C#Cc1c(F)ccc2cc(N)cc(-c3ncc4c(N5CCOC[C@H]6[C@H](F)[C@H]65)nc(OC[C@@]56CCCN5C[C@@H](C)C6)nc4c3F)c12` (single isomer, unassigned) [Example 209] gave a pIC50 of more than 7.30.
Under `C#Cc1c(F)ccc2cc(N)cc(-c3ncc4c(N5CCOC[C@H]6[C@H](F)[C@H]65)nc(OC[C@@]56CCCN5C[C@]5(CC5(F)F)C6)nc4c3F)c12` (single isomer, unassigned) [Example 210] stands more than 7.30; under `C#Cc1c(F)ccc2cc(N)cc(-c3ncc4c(N5CCOC[C@H]6[C@H](F)[C@H]65)nc(OC[C@@]56CCCN5C[C@@]5(CC5(F)F)C6)nc4c3F)c12` (single isomer, unassigned) [Example 211], more than 7.30.
As for `[2H]C([2H])(F)Oc1c(F)ccc2cc(N)cc(-c3ncc4c(N5CCOC[C@H]6[C@H](F)[C@H]65)nc(OC[C@@]56CCCN5C[C@@H](C)C6)nc4c3F)c12` (single isomer, unassigned) [Example 214], the pIC50 was more than 7.30.
Under `[2H]C([2H])(F)Oc1c(F)ccc2cc(N)cc(-c3ncc4c(N5CCOC[C@H]6[C@H](F)[C@H]65)nc(OC[C@@]56CCCN5C[C@H](C)C6)nc4c3F)c12` (single isomer, unassigned) [Example 215] stands more than 7.30; under `C#Cc1c(F)ccc2cc(N)cc(-c3ncc4c(N5CCOC[C@H]6[C@H](F)[C@H]65)nc(OC[C@]56C[C@@]7(CN5CCC65CC5)CC7(F)F)nc4c3F)c12` (single isomer, unassigned) [Example 218], more than 7.30.
Turning to `C#Cc1c(F)ccc2cc(N)cc(-c3ncc4c(N5CCOC[C@H]6[C@H](F)[C@H]65)nc(OC[C@]56C[C@]7(CN5CCC65CC5)CC7(F)F)nc4c3F)c12` (single isomer, unassigned) [Example 219], the pIC50 is more than 7.30.
Under `[2H]C([2H])(F)Oc1c(F)ccc2cc(N)cc(-c3ncc4c(N5CCOC[C@H]6[C@H](F)[C@H]65)nc(OC[C@@]56CCCN5C[C@@]5(CC5(F)F)C6)nc4c3F)c12` (single isomer, unassigned) [Example 229] stands more than 7.30; under `[2H]C([2H])(F)Oc1c(F)ccc2cc(N)cc(-c3ncc4c(N5CCOC[C@H]6[C@H](F)[C@H]65)nc(OC[C@@]56CCCN5C[C@]5(CC5(F)F)C6)nc4c3F)c12` (single isomer, unassigned) [Example 230], more than 7.30.
With `C#Cc1c(F)ccc2cc(N)cc(-c3ncc4c(N5CCOC[C@H]6[C@H](F)[C@H]65)nc(OC[C@]56C[C@]7(C[C@H]7F)CN5CCC65CC5)nc4c3F)c12` (single isomer, unassigned) [Example 231] the figure was more than 7.30; with `C#Cc1c(F)ccc2cc(N)cc(-c3ncc4c(N5CCOC[C@H]6[C@H](F)[C@H]65)nc(OC[C@]56C[C@]7(C[C@@H]7F)CN5CCC65CC5)nc4c3F)c12` (single isomer, unassigned) [Example 232], more than 7.30; with `C#Cc1c(F)ccc2cc(N)cc(-c3ncc4c(N5CCOC[C@H]6[C@H](F)[C@H]65)nc(OC[C@]56C[C@@]7(C[C@H]7F)CN5CCC65CC5)nc4c3F)c12` (single isomer, unassigned) [Example 233], more than 7.30.
Under `C#Cc1c(F)ccc2cc(N)cc(-c3ncc4c(N5CCOC[C@H]6[C@H](F)[C@H]65)nc(OC[C@]56C[C@@]7(C[C@@H]7F)CN5CCC65CC5)nc4c3F)c12` (single isomer, unassigned) [Example 234] stands more than 7.30; under `[2H]C([2H])(Oc1nc(N2CCOC[C@H]3[C@H](F)[C@H]32)c2cnc(-c3cc(N)cc4ccc(F)c(C#C)c34)c(F)c2n1)[C@@]12CCCN1C[C@@H](Cl)C2` (single isomer, unassigned) [Example 237], more than 7.30; under `[2H]C([2H])(Oc1nc(N2CCOC[C@H]3[C@H](F)[C@H]32)c2cnc(-c3cc(N)cc4ccc(F)c(C#C)c34)c(F)c2n1)[C@@]12CCCN1C[C@H](Cl)C2` (single isomer, unassigned) [Example 238], more than 7.30.
In the case of `C#Cc1c(F)ccc2cc(N)cc(-c3ncc4c(N5CCOC[C@H]6[C@H](F)[C@H]65)nc(OC[C@]56C[C@@H](C)CN5CCC65CC5)nc4c3F)c12` (single isomer, unassigned) [Example 242], the pIC50 was more than 7.30.
Take `C#Cc1c(F)ccc2cc(N)cc(-c3ncc4c(N5CCOC[C@H]6[C@H](F)[C@H]65)nc(OC[C@@]56C[C@H](C)CN5CCC65CC5)nc4c3F)c12` (single isomer, unassigned) [Example 243]: the pIC50 was more than 7.30.
Consider `C#Cc1c(F)ccc2cc(N)cc(-c3ncc4c(N5CCOC[C@H]6[C@H](F)[C@H]65)nc(OC[C@]56C[C@H](C)CN5CCC65CC5)nc4c3F)c12` (single isomer, unassigned) [Example 251], for which the pIC50 was more than 7.30.
Under `C#Cc1c(F)ccc2cc(N)cc(-c3ncc4c(N5CCOC[C@H]6[C@H](F)[C@H]65)nc(OC[C@@]56CCCN5C[C@@]5(C[C@@H]5F)C6)nc4c3F)c12` (single isomer, unassigned) [Example 252] stands more than 7.30; under `C#Cc1c(F)ccc2cc(N)cc(-c3ncc4c(N5CCOC[C@H]6[C@H](F)[C@H]65)nc(OC[C@@]56CCCN5C[C@@]5(C[C@H]5F)C6)nc4c3F)c12` (single isomer, unassigned) [Example 253], more than 7.30.
Under `C#Cc1c(F)ccc2cc(N)cc(-c3ncc4c(N5CCOC[C@H]6[C@H](F)[C@H]65)nc(OC[C@@]56CCCN5C[C@]5(C[C@H]5F)C6)nc4c3F)c12` (single isomer, unassigned) [Example 254] stands more than 7.30.
With `C#Cc1c(F)ccc2cc(N)cc(-c3ncc4c(N5CCOC[C@H]6[C@H](F)[C@H]65)nc(OC[C@@]56CCCN5C[C@]5(C[C@@H]5F)C6)nc4c3F)c12` (single isomer, unassigned) [Example 255] the figure was more than 7.30.
For `[2H]C([2H])(Oc1nc(N2CCOC[C@H]3[C@H](F)[C@H]32)c2cnc(-c3cc(N)cc4ccc(F)c(C#C)c34)c(F)c2n1)[C@@]12CCCN1C[C@@H](CF)C2` (single isomer, unassigned) [Example 265], the pIC50 is more than 7.30.
`[2H]C([2H])(Oc1nc(N2CCOC[C@H]3[C@H](F)[C@H]32)c2cnc(-c3cc(N)cc4ccc(F)c(C#C)c34)c(F)c2n1)[C@@]12CCCN1C[C@H](CF)C2` (single isomer, unassigned) [Example 266]: the negative-log IC50 (pIC50) was more than 7.30.
With `[2H]C1([2H])CC[C@@]2(C([2H])([2H])Oc3nc(N4CCOC[C@H]5[C@H](F)[C@H]54)c4cnc(-c5cc(N)cc6ccc(F)c(C#C)c56)c(F)c4n3)C[C@@]3(C[C@H]3F)CN12` (single isomer, unassigned) [Example 274] the figure was more than 7.30; with `[2H]C1([2H])CC[C@@]2(C([2H])([2H])Oc3nc(N4CCOC[C@H]5[C@H](F)[C@H]54)c4cnc(-c5cc(N)cc6ccc(F)c(C#C)c56)c(F)c4n3)C[C@@]3(C[C@@H]3F)CN12` (single isomer, unassigned) [Example 275], more than 7.30.
With `[2H]C([2H])(Oc1nc(N2CCOC[C@H]3[C@H](F)[C@H]32)c2cnc(-c3cc(N)cc4ccc(F)c(C#C)c34)c(F)c2n1)[C@@]12CCCN1C[C@]1(C[C@H]1F)C2` (single isomer, unassigned) [Example 312] the figure was more than 7.30; with `[2H]C([2H])(Oc1nc(N2CCOC[C@H]3[C@H](F)[C@H]32)c2cnc(-c3cc(N)cc4ccc(F)c(C#C)c34)c(F)c2n1)[C@@]12CCCN1C[C@]1(C[C@@H]1F)C2` (single isomer, unassigned) [Example 313], more than 7.30.
With `[2H]C([2H])(Oc1nc(N2CCOC[C@H]3[C@H](F)[C@H]32)c2cnc(-c3cc(N)cc4ccc(F)c(C#C)c34)c(F)c2n1)[C@@]12CCCN1C[C@@H](CC#N)C2` (single isomer, unassigned) [Example 314] the figure was more than 7.30; with `[2H]C([2H])(Oc1nc(N2CCOC[C@H]3[C@H](F)[C@H]32)c2cnc(-c3cc(N)cc4ccc(F)c(C#C)c34)c(F)c2n1)[C@@]12CCCN1C[C@H](CC#N)C2` (single isomer, unassigned) [Example 315], more than 7.30.
`[2H]C([2H])(Oc1nc(N2CCOC[C@@H]3C(F)[C@@H]32)c2cc(F)c(-c3cc(N)cc(C)c3C(F)(F)F)c(F)c2n1)[C@@]12CCCN1C[C@H](F)C2` (stereo in doubt) [Example 170, 3-(6,8-difluoro-4-((1R,7R,8R)-8-fluoro-5-oxa-2-azabicyclo[5.1.0]octan-2-yl)-2-(((2R,7aS)-2-fluorotetrahydro-1H-pyrrolizin-7a(5H)-yl)methoxy-d2)quinazolin-7-yl)-5-methyl-4-(trifluoromethyl)aniline] had a pIC50 of 5.00 to 6.30.
`[2H]C([2H])(Oc1nc(N2CC[C@H](C#N)C[C@@H]3[C@H](F)[C@@H]32)c2cnc(-c3cc(N)cc4ccc(F)c(C#C)c34)c(F)c2n1)[C@@]12CCCN1C[C@H](F)C2` (stereo in doubt) [Example 309, (1R,SR,7S,8S)-2-(7-(3-amino-8-ethynyl-7-fluoronaphthalen-1-yl)-8-fluoro-2-(((2R,7aS)-2-fluorotetrahydro-1H-pyrrolizin-7a(5H)-yl)methoxy-d2)pyrido[4,3-d]pyrimidin-4-yl)-8-fluoro-2-azabicyclo[5.1.0]octane-5-carbonitrile] gave a negative-log IC50 (pIC50) of 6.30 to 7.30.
